The values that follow are results of earlier work, collected in patent US10828268B2 (priority 2013, dated 2020).

For this data set the following is noted: human, taken orally.

On to `COc1cc(/C=C/C(=O)CC(=O)/C=C/c2ccc(O)c(OC)c2)ccc1O` [curcumin], for which the oral bioavailability result is given as “poorly bioavailable”.
